Data taken from patent publication US5631394A, “Pharmaceutically active ceramide-related compounds” (The Liposome Company, Inc., priority 1995, dated 1997).
Counter-ions that a name gives are not always drawn.

How the values were obtained:
Format in all cases: cell-based
[1] = system: MCF7/ADR cells; test: sulforhodamine B cytotoxicity assay, 72 hour drug exposure, MCF7/ADR
[2] = system: LEWIS LUNG cells; test: sulforhodamine B cytotoxicity assay, 72 hour drug exposure, Lewis lung
[3] = system: SKMEL 28 cells; test: sulforhodamine B cytotoxicity assay, 72 hour drug exposure, SKMEL 28
[4] = system: OVCAR 3 cells; test: sulforhodamine B cytotoxicity assay, 72 hour drug exposure, OVCAR 3
[5] = system: HT 29 cells; test: sulforhodamine B cytotoxicity assay, 72 hour drug exposure, HT 29
[6] = system: MCF7 cells; test: sulforhodamine B cytotoxicity assay, 72 hour drug exposure, MCF7
[7] = system: CAKI 1 cells; test: sulforhodamine B cytotoxicity assay, 72 hour drug exposure, CAKI 1
[8] = system: A549 cells; test: sulforhodamine B cytotoxicity assay, 72 hour drug exposure, A549
[9] = system: MCF 7/ADR cells; test: in vitro sensitivity at different drug exposure times, MCF 7/ADR; conditions: Homo sapiens, NCI/ADR-RES
Protocol: (§1) These studies were performed using a sulforrhodamine B assay (see Monks et al., J. Natl. Cancer Inst. (U.S.) 83:757 ([…])). Compounds were dissolved in ethanol. Results from these studies, presented in the following tables, are expressed as Gl50 values, that is, concentration of a drug (micromolar) required to inhibit growth of fifty percent of the cells.

[10] = system: A549 cells; test: in vitro sensitivity at different drug exposure times, A549; conditions: Homo sapiens
Protocol: as §1

[11] = system: RPMI 7666 cells; test: sulforhodamine B cytotoxicity assay, 72 hour drug exposure, RPMI 7666
Protocol: as §1

[12] = system: U937 cells; test: sulforhodamine B cytotoxicity assay, 72 hour drug exposure, U937; conditions: Homo sapiens, U-937
Protocol: as §1

[13] = system: C3H10T1/2 cells; test: sulforhodamine B cytotoxicity assay, 72 hour drug exposure, C3H10T1/2; conditions: Mus musculus, C3H 10T1/2
Protocol: as §1

[14] = Homo sapiens, NCI/ADR-RES, 72 h

SMILES | GI50 [1, 14] [µM] | GI50 ([2]; Lewis lung carcinoma, 72 h) [µM] | GI50 ([6]; Homo sapiens, MCF7, 72 h) [µM] | GI50 ([8]; Homo sapiens, A549, 72 h) [µM] | GI50 ([9]; 1 hour pulse) [µM] | GI50 ([9]; 4 hour pulse) [µM] | GI50 ([9]; 8 hour pulse) [µM] | GI50 ([9]; 24 hour pulse) [µM] | GI50 ([9]; 48 hour pulse) [µM] | GI50 ([9]; 72 hour continuous exposure) [µM] | GI50 ([10]; 1 hour pulse) [µM] | GI50 ([10]; 4 hour pulse) [µM] | GI50 ([10]; 8 hour pulse) [µM] | GI50 ([10]; 24 hour pulse) [µM] | GI50 ([10]; 48 hour pulse) [µM] | GI50 ([10]; 72 hour continuous exposure) [µM] | further results
CCCCCCCCCCCCC/C=C/[C@@H](O)[C@H](CO)NCCCCCCCC [N-C8 Sphingosine HCl Salt] | – | – | – | – | – | – | – | – | – | – | – | – | – | – | – | – | GI50 ([1]; HCl Salt): 4.82 ± 0.18 µM; GI50 ([2]; HCl Salt): 4.82 ± 0.18 µM; GI50 ([3]; HCl Salt): 4.95 ± 0.02 µM; GI50 ([4]; HCl Salt): 5.23 ± 0.01 µM; GI50 ([5]; HCl Salt): 5.78 µM; GI50 ([6]; HCl Salt): 4.9 ± 0.02 µM; GI50 ([7]; HCl Salt): 4.47 ± 0.01 µM; GI50 ([8]; HCl Salt): 4.97 ± 0.19 µM
CCCCCCCCCCCCC/C=C/[C@@H](OC(C)=O)[C@H](COC(C)=O)NC(=O)CCCCC [1,3-Diacetate C6-Ceramide] | 42.9 ± 3.6 | 4.9 ± 0.5 | 15.5 ± 0.2 | 6.1 ± 1.1 | – | – | – | – | – | – | – | – | – | – | – | – | –
CCCCCCCCCCCCC/C=C/[C@@H](O)[C@H](CO)NCCCCCCCC | 4.88 ± 0.04 | 5.05 ± 0.02 | 4.88 ± 0.11 | 4.91 ± 0.01 | 34.3 ± 4.2 | 14.2 ± 1.2 | 8.9 ± 0.2 | 4.8 ± 0.1 | 4.62 ± 0.1 | 5 ± 0.1 | 31.2 ± 5 | 12.8 ± 1 | 6.7 ± 0.2 | 5 ± 0.1 | 4.8 ± 0.1 | 5 | GI50 ([3]; Homo sapiens, SK-MEL-28, 72 h): 4.96 ± 0.03 µM; GI50 ([4]; Homo sapiens, OVCAR-3, 72 h): 5.41 ± 0.13 µM; GI50 ([5]; Homo sapiens, HT-29, 72 h): 5.72 ± 0.24 µM; GI50 ([7]; Homo sapiens, CAKI-1, 72 h): 4.64 ± 0.07 µM
CCCCCCCCCCCCC/C=C/[C@@H](O)[C@@H](N)CO [Sphingosine, reference compound] | – | – | – | – | – | – | – | – | – | – | – | – | – | – | – | – | GI50 ([1]; Homo sapiens, NCI/ADR-RES): 19.8 µM; GI50 ([2]; Lewis lung carcinoma): 12.2 ± 0.1 µM; GI50 ([3]; Homo sapiens, SK-MEL-28): 15.6 ± 1 µM; GI50 ([4]; Homo sapiens): 44.6 ± 0.9 µM; GI50 ([5]; Homo sapiens): 19.3 ± 0.1 µM; GI50 ([6]; Homo sapiens): 20.4 ± 0.4 µM; GI50 ([7]; Homo sapiens): 39.7 ± 0.8 µM; GI50 ([8]; Homo sapiens): 20.2 ± 0.8 µM
CCCCCCCCCCCCC/C=C/[C@@H](O)[C@H](COC(=O)C(C)C)NC(=O)CCCCC [1-Isobutyrate C6-Ceramide, 1-isobutyrate, C6-ceramide] | 37.8 ± 4.67 | – | – | 7.9 ± 3.5 | > 100 | > 100 | 52.3 ± 1.6 | 22.7 ± 1.1 | 18.7 ± 0.5 | 19.6 ± 1 | > 100 | > 100 | 40.2 ± 2.5 | 8.4 ± 0.7 | 5.2 ± 0.3 | 5.6 ± 0.2 | –
CCCCCCCCCCCCC/C=C/[C@@H](O)[C@H](COC(=O)CCC)NC(=O)CCCCC [1-Butyrate C6-Ceramide, 1-butyrate, C6-ceramide] | 37.8 ± 8.06 | 6.4 ± 2.4 | 17.9 ± 10 | 6.2 ± 0.4 | > 100 | 79.1 ± 5.3 | 44 ± 1.1 | 20.8 ± 1.8 | 17.2 ± 0.1 | 18.5 ± 0.4 | > 100 | 52.9 ± 2.5 | 36.5 ± 0.8 | 8.6 ± 0.6 | 4.7 ± 0.1 | 5.5 ± 0.2 | –
CCCCCCCCCCCCC/C=C/[C@@H](O)[C@H](COC(C)=O)NC(=O)CCCCC [1-Acetate C6-Ceramide, 1-acetate, C6-ceramide] | – | 8.5 ± 0.4 | – | 12.7 ± 7.6 | > 100 | 59.5 ± 1.4 | 42.7 ± 1.2 | 19.5 ± 0.8 | 15.6 ± 0.9 | 16.7 ± 1.7 | 92.9 ± 1.3 | 44.1 ± 1.3 | 35.3 ± 2.5 | 7.2 ± 0.2 | 4.35 ± 0.1 | 5.1 ± 0.1 | GI50 [11]: 9 ± 2 µM; GI50 [12]: 11.3 ± 1 µM
CCCCCCCCCCCCC/C=C/[C@@H](O)[C@H](CO[Si](C)(C)C(C)(C)C)NC(=O)CCCCC [1-TBDMS C6-Ceramide, 1-TBDMS C6-Cer] | – | – | – | – | – | – | – | – | – | – | – | – | – | – | – | – | GI50 [11]: > 200 µM; GI50 [13]: > 161 µM; GI50 ([2]; Lewis lung carcinoma): > 200 µM; GI50 [12]: > 200 µM; GI50 ([8]; Homo sapiens): > 200 µM
